Experimental data as given in article PMC12662248 (ADMET & DMPK, 2025).
“Also recorded” adds a separate entry of the source. Like-named read-outs stand apart in the source and are kept apart here.

Legend:
[1] = system: plateable rat hepatocytes; assay: Metabolite identification in plateable rat hepatocytes; format: in vitro ADME; settings: 10 μM metoprolol, 72 hours
Procedure: (§1) Cryopreserved rat, dog, monkey and human hepatocytes were thawed by immersing vials in a pre-warmed 37 °C water bath. The cell pellets were then transferred to thawing medium and centrifuged to isolate viable cells. Then, hepatocytes were diluted to 0.7 million cells mL^-1 and seeded into collagen-coated 48-well plates (0.2 mL per well) in duplicate. After 6 hours of attachment, the plating medium was replaced with incubation medium containing 1 % Matrigel™. […] Reactions were quenched at 72 hours with cold acetonitrile containing 0.1 % formic acid, and supernatants were dried under nitrogen gas. The residues were reconstituted in acetonitrile/water (1:9 volume ratio) with 0.1 % formic acid and analysed LC-HRMS. The M7 metabolite was isolated, purified, and concentrated via a mass spectrometry switching valve, followed by sample reconstitution, and subsequent analysis on LC-HRMS.
(§2) The maximum injection time was limited to 50 ms.
(§3) Hepatocyte viability data was expressed as mean±SD.

[2] = system: plateable monkey hepatocytes; assay: Metabolite identification in plateable monkey hepatocytes; format: in vitro ADME; settings: 10 μM metoprolol, 72 hours
Procedure: as §1, §2, §3

[3] = system: plateable dog hepatocytes; assay: Metabolite identification in plateable dog hepatocytes; format: in vitro ADME; settings: 10 μM metoprolol, 72 hours
Procedure: as §1, §2, §3

recombinant 2D6 enzymes [4] = target: T1, recombinant 2D6 enzymes (Homo sapiens, UniProt P10635); assay: Metabolite identification in recombinant cytochrome 2D6 enzymes; settings: human recombinant 2D6 enzymes, 1 μM metoprolol, 60 min
Procedure: (§5) Human recombinant cytochrome 2D6 enzymes were diluted to 50 pmol mL^-1 in 50 mM phosphate buffer. […] Reactions were initiated by adding NADPH (final concentration: 1 mM), and aliquots were collected at 60 min. Samples were quenched with cold acetonitrile containing 0.1 % formic acid, centrifuged (12,000g, 15 min, 4 °C), then supernatants were dried, reconstituted, centrifuged (12,000g, 15 min, 4 °C), and subjected to an analysis on LC-HRMS..
(§6) Qualitative LC-HRMS analysis was conducted using an Ultimate 3000 pump (ThermoFisher, Germany) and a Q-Exactive Plus spectrometer. The mobile phase A was distilled water containing 0.1 % formic acid and the mobile phase B was acetonitrile containing 0.1 % formic acid. The liquid chromatography (LC) gradient spanned 22 min: 0 to 1.0 minute at 5 % B; 1.0 to 6.0 min, 5 to 15 % B; 6.0 to 14.0 mi, 15 to 25 % B; 14.0 to 16.0 min, 25 to 90 % B; 16.0 to 18.0 min, 90 to 95 % B; 18.0 to 20.0 min, 95 to 5 % B; and 20.0 to 22.0 min at 5 % B (flow rate: 0.3 mL min^-1). MS parameters included: spray voltage: 3.8 kV, capillary temperature: 320 °C, heater temperatures: 350 °C, sheath gas: 2.76 MPa, auxiliary nitrogen pressures: 0.7 MPa and tube lens voltage: 10 eV. The full scan Q1 resolution was set to 70,000, and the automatic gain control (AGC) target value was set to 5×10^5 intensity. The maximum injection time was limited to 50 ms. The dd-MS^2 resolution was set at 17,500, with the AGC target set at 5×10^4. External calibration was performed, yielding a deviation of less than 5.0 ppm. Data was processed using Xcalibur 4.1.31.9 software (ThermoFisher, Germany; https://www.thermofisher.com/order/catalog/product/OPTON-30965).
(§7) LC-HRMS raw data was extracted with Xcalibur, and metabolites were identified using Compound Discoverer 3.0 (ThermoFisher, Germany; https://www.thermofisher.com/order/catalog/product/OPTON-31061) by comparing fragment patterns between parent compounds, metabolites, and standards.

[5] = system: plateable human hepatocytes; assay: Metabolite identification in plateable human hepatocytes; format: in vitro ADME; settings: 10 μM metoprolol, 72 hours
Procedure: as §1, §2, §3

[6] = system: plateable human hepatocytes; assay: Plateable hepatocytes stability (metoprolol depletion); format: in vitro ADME
Procedure: Cryopreserved human hepatocytes were thawed by immersing vials in a pre-warmed 37 °C water bath. The cell pellets were then transferred to thawing medium and centrifuged to isolate viable cells. […] Aliquots were collected at 0, 2, 4, 8, 24, 48 and 72 hours, and reactions were quenched with cold acetonitrile/methanol (1:1, v/v) containing labetalol (100 ng mL^-1). After centrifugation (12,000g, 15 min, 4 °C), supernatants were analysed via LC-30AD-API5500 (LC-MS/MS, SCIEX, USA) for semiquantitative assessment. […] Hepatocyte viability data was expressed as mean±SD.

[7] = system: plateable human hepatocytes; assay: Plateable hepatocytes cytotoxicity (CellTiter-Glo ATP assay), human; format: cell-based; settings: 0 to 500 μM, 48 hours, regardless of ABT co-treatment
Procedure: (§4) Cryopreserved plateable rat and human hepatocytes were thawed by immersing vials in a pre-warmed 37 °C water bath. The cell pellets were then transferred to thawing medium and centrifuged to isolate viable cells. […] Prior to the measurement, the cell culture plate was equilibrated to ambient temperature. Subsequently, 100 μL of CellTiter-Glo® reagent was dispensed into each well, followed by orbital shaking (5 min) to ensure complete cell lysis. After a 10-minute stabilization at room temperature, luminescence signals were quantified using an envision® multilabel plate reader.

[8] = system: plateable rat hepatocytes; assay: Plateable hepatocytes cytotoxicity (CellTiter-Glo ATP assay), rat; format: cell-based; settings: 48 hours; for cytotoxicity in rat hepatocytes (words): 0 to 500 μM
Procedure: as §4

[9] = system: plateable human hepatocytes; settings: cited from earlier work
recombinant 2D6 enzymes [10] = target: T1, recombinant 2D6 enzymes; settings: 60 min, 1 μM
Procedure: as §5, §6, §7

T1 sequence (P10635 whole entry): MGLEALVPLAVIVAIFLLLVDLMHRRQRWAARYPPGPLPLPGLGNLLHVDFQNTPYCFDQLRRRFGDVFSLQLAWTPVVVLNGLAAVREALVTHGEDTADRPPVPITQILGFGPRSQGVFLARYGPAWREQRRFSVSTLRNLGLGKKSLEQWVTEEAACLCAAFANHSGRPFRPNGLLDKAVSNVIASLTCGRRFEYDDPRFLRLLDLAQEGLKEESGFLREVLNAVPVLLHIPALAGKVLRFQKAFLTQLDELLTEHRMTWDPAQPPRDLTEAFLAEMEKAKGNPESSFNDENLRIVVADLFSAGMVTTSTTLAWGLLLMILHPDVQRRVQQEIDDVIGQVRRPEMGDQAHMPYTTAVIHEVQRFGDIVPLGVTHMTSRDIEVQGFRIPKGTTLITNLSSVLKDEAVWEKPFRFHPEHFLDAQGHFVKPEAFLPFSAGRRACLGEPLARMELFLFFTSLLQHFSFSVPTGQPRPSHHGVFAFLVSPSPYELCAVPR

Row | Relative peak area, plateable hepatocytes, R [1] | Relative peak area, plateable hepatocytes, Mk [2] | Relative peak area, plateable hepatocytes, D [3] | Relative peak area, plateable hepatocytes, H [5] | Relative peak area, 2D6, H (recombinant 2D6 enzymes [10]) | Compound | also measured
1 | – | – | – | – | – | COCCc1ccc(OCC(O)CNC(C)C)cc1 (centres unmarked) [metoprolol, Metoprolol] | in vivo CLint ([6]; extrapolated from plateable human hepatocyte CLint): 1.59 ± 0.31 mL/min/kg; in vitro intrinsic clearance (CLint) ([6]; plateable human hepatocytes, 1 μM, 72-hour incubation): 0.56±0.12 μL min^-1 per million cells; cytotoxicity in human hepatocytes (words) [7]: No significant reduction in cell viability; also recorded: no significant hepatotoxicity; cytotoxicity in human hepatocytes (words) ([7]; listed as Metoprolol): no observable cytotoxicity; cytotoxicity in rat hepatocytes (words) ([8]; without ABT): weak cytotoxicity; also recorded: weak hepatotoxicity; cytotoxicity in rat hepatocytes (words) ([8]; without ABT, listed as Metoprolol): cytotoxic only at a concentration of 500 μM; effect of ABT pre-treatment on metoprolol cytotoxicity ([8]; rat hepatocytes, 500 μM metoprolol with 50 μM ABT): reversed the cytotoxic effect; reductions in cell viability ([8]; rat hepatocytes, 500 μM metoprolol, without ABT): > 30%; in vivo clearance ([9]; correlating with plateable human hepatocyte clearance): 1.4 mL/min/kg; clearance in hepatocytes ([9]; previously reported): 4.28 μL min^-1 per million cells; clearance in plateable human hepatocytes ([9]; previously reported): 2.2 ± 0.7 μL min^-1 per million cells
2 | – | 0.1% | 0.7% | – | 1.6% | NCC(O)COc1ccc(CCO)cc1 (centres unmarked) [M3] | –
3 | 24.4% | 5.6% | 9.4% | 2.7% | 20.1% | COCC(O)c1ccc(OCC(O)CNC(C)C)cc1 (stereo not drawn) [M10, α-hydroxy-metoprolol] | –
4 | 0.4% | 0.2% | – | – | 1.7% | CC(C)NCC(O)COc1ccc(C(=O)O)cc1 (centres unmarked) [M9] | –
5 | 0.1% | – | 5.8% | – | 6.4% | COCCc1ccc(OCC(O)CN)cc1 (centres unmarked) [M18] | –
6 | 3.8% | 0.1% | 20.5% | 6.0% | 22.8% | CC(C)NCC(O)COc1ccc(CCO)cc1 (centres unmarked) [M13, O-desmethyl-metoprolol] | –

Row | Compound | Relative peak area, plateable hepatocytes, R [1] | Relative peak area, plateable hepatocytes, Mk [2] | Relative peak area, plateable hepatocytes, D [3] | Relative peak area, plateable hepatocytes, H [5] | Relative peak area, 2D6, H (recombinant 2D6 enzymes [10]) | also measured
7 | CC(C)NCC(O)COc1ccc(CC(=O)O)cc1 (centres unmarked) [M17, metoprolol acid] | 57.2% | 82.6% | 19.9% | 14.6% | – | Relative peak area, 2D6, H (recombinant 2D6 enzymes [4]): 18.3%
